Data on three molecules can be found in patent US20090042820A1, “Tubulin Binding Anti Cancer Agents And Prodrugs Thereof” (Threshold Pharmaceuticals, Inc., priority 2004, published 2009).

For data set [1] the following is noted: patients, reported in literature; cited from earlier work.
In data set [2] the test system is H460 xenograft. Kind of data set: H460 xenograft mouse model. To be noted: for Treated/Control (T/C) ratio, tumor volume: compound 30 5 mg/kg daily for five days from day 8. It counts as in vivo. As for the experimental part:
(§1) Female CB17/SCID mice (purchased from Taconic, Oxnard, Calif.), 7-8 weeks of age, were allowed to acclimatize for at least three days, and handled under pathogen-free conditions. Human non-small cell lung cancer cell line […] was obtained from the American Type Culture Collection. The cell lines were cultured in RPMI 1640 media supplemented with 10% fetal bovine serum. Cells were maintained in a 37° C. incubator with 5% CO2. The H460 cells were harvested from culture and inoculated at 1×10^6 cells/animal in the […] subcutaneous space. […] Taxol was administered approximately 2-3 hours before that of compound 30.
(§2) The body weight of each mouse was recorded twice per week (FIG. 1). […] One animal in the treatment group was found dead on day 18, and two were found dead on day 22 in the combination group.
(§3) FIG. 2 graphically illustrates the mean tumor volume for each treatment group. Growth of each xenograft was monitored by externally measuring tumors in two dimensions using a digital caliper twice per week. Tumor volume (V) was determined by the following equation: V=(L×W^2)/2, where L is the length and W is the width of a xenograft. Tumor volumes were measured twice weekly. On day 11, the Treated/Control (T/C) ratio was 65% and 52% in the treatment and combination groups, respectively. At the final measurement (day 22), the T/C ratio for the treatment and combination groups respectively were 43% and 19%.

Data set [3] in a line: H460 xenograft mouse model. The format is in vivo. The note with it: female, mouse, in vivo; daily dose for five days, CB17/SCID mice; read-out: maximum tolerated dose. As to the method:
as §1, §2, §3

The nature of data set [4]: Metabolic stability in mouse liver microsomes. It counts as in vitro ADME. To be noted: 5 μM, 1 mg/mL protein, NADPH, 37° C. As for the experimental part:
An in vitro assessment of metabolic stability of compounds was performed using commercially available mouse liver microsomes (MLM) containing cytochrome P450 enzymes (Cedra Corp, Austin, Tex.). A solutions (5 μM) of a compound and microsomes (1 mg/mL protein) was prepared. P450 enzymatic reactions were initiated by adding an NADPH solution. Enzymatic reactions were carried out in a thermostated shaking water bath kept at 37° C. Fifty μl of the reaction mixture was withdrawn immediately and 30 minutes after the addition of the NADPH solution and the proteins were precipitated with acetonitrile. The clear supernatant was analyzed by reversed phase LC-MS/MS (Applied Biosystems API-3000 with Hypersil-BDS C18 column and gradient elution), with internal standard area ratio quantification for the amount the compound remaining as shown in table 4.

For data set [5], the system named is H460 cells. As to the kind of experiment: Cell cycle analysis. The note with it: 24 h. It counts as cell-based, human. As to the method: H460 cells (2×10^5 cells/ml/well) were seeded in a 24 well plate. The culture media were removed after 24 h, the cells were trypsinized and centrifuged. […] The cells were centrifuged and the supernatant was discarded. The cell cycle staining reagent (Guava Technologies, Hayward, Calif., USA, 200 μl) was added to each well. The cells were shielded from light and incubated at room temperature for 30 min.

Data set [6] deals with HT29. Kind of data set: Alamar Blue antiproliferation assay, HT29. The format is cell-based. To be noted: Homo sapiens, HT-29, 72 h; HT29, 3 Day. A general note: The colour change of resazurin is a common sign of viable cells or microbes.
In data set [7] the test system is cancer cell. As to the kind of experiment: Cancer cell antiproliferation assay (cell line not stated). The format is cell-based. To be noted: summary statement; read-out: GI50 or IC50 in a cancer cell antiproliferation assay. As to the method: In one aspect, the present invention provides a compound of formula (I-VII) having a GI50, GI90, IC50, or IC50 of about 0.001 to about 1000 nM, about 0.01 to about 100 nm, about 0.1 to about 50 nM, and about 1 to about 10 nM in a cancer cell antiproliferation assay. In one embodiment, the present invention provides a compound of formula (I) having a GI50 or IC50 of about 0.01 to about 100 nm, about 0.1 to about 50 nm, and about 1 to about 10 nm in a cancer cell antiproliferation assay. In various embodiments, said antiproliferation assays employ cancer cell including but not limited to gastric, colon, breast, and non-small cell lung cancer. In various embodiments, the […] cancer cell used is MESSA or doxorubicin resistant MESSA/DX5 cell; the colon cancer cell is HT29 cell; the breast cancer cell is T47D cell; and the non-small cell lung cancer cell is H460 cell.
(§4) To determine the effect of the compounds of the present invention on cell proliferation, the antiproliferative activity of these compounds was tested in a multi-well Alamar Blue based assay (at 2 h and 3 days). Cell growth in the presence and absence of the test compound as tabulated in Table 1 was compared, as measured by a fluorescence plate reader at excitation 550 nm and emission 590 nm (see Biosource International Inc., Tech Application Notes, Use of Alamar Blue in the measurement of Cell Viability and Toxicity, Determining IC50). H460 cells (ATCC HTB-177 ([…]), 4,000 cells/well/200 μl) and LNCap cells (ATCC CRL-1740, 6,000 cells/well/200 μl) were seeded in a 96 well plate in RPMI medium (Invitrogen Corporation, Carlsbad, Calif.). After 24 hours, these plates were divided into 3 groups—Control group, 2 h treatment group and 3 day treatment group.
(§5) In the 2 h treatment group, after 2 h the cells were rinsed to remove the test compound and incubated for 3 days, followed by staining with AlamarBlue. The cells in the 3-day treatment group were incubated for 3 days, followed by staining with AlamarBlue. In the Control group, AlamarBlue was added to the plate at (i) day 0 and (ii) day 3 and measured to establish the control reading. In all the groups, the capacity of the cells to proliferate was measured 6 hours after addition of AlamarBlue by a fluorescence plate reader at excitation 550 nm and emission 590 nm.

For data set [8], the system named is MES-SA. Kind of data set: Alamar Blue antiproliferation assay, MES-SA. It counts as cell-based. To be noted: Homo sapiens, 72 h, 3 Day.
Data set [9] is described as follows: Plasma stability. It counts as in vitro ADME. The note with it: mouse plasma, 5 μM, 37° C. As to the method:
For an assessment of plasma stability of compounds, commercially available mouse plasma (Bioreclamation, Hicksville, N.Y.) was added to a DMSO solution of a compound, to a concentration of 5 μM. The reaction mixture (50 μl) was withdrawn immediately and after 30 minutes at 37° C., proteins were precipitated with acetonitrile. The clear supernatant was analyzed by reversed phase LC-MS/MS and the amount the compound remaining quantified as shown in table 4.

Data set [10] concerns tubulin. As to the kind of experiment: Tubulin polymerization inhibition (cell free tubulin fluorescence). The format is biochemical. The note with it: compared to untreated tubulin, read-out: IC50 (μM), concentration that reduced tubulin fluorescence by 50%. As to the method:
A sample of cell free tubulin polymerizes and the sample's fluorescence emission increases. Inhibition of tubulin polymerization by a tubulin binding compounds of the present invention was measured by the dose dependence of cell free tubulin fluorescence.

For data set [11], the system named is T47D. As to the kind of experiment: Alamar Blue antiproliferation assay, T47D. It counts as cell-based. The note with it: Homo sapiens, 72 h, 3 Day.
In data set [12] the test system is H460 cells. As to the kind of experiment: Alamar Blue antiproliferation assay, H460 cell line. The format is cell-based, human. The note with it: Homo sapiens. As to the method:
as §4, §5

Data set [13] relates to MES-SA/DX5. Kind of data set: Alamar Blue antiproliferation assay, MES-SA/DX5. The format is cell-based. To be noted: Homo sapiens, 72 h; MES-SA/DX5, 3 Day.
Setting [14] is: NCI-H460, 72 h, 3 day treatment, read-out: GI50 (nM) 3 Days.

Read-outs that look alike come from different tables or passages of the source.

For the molecule `COc1ccc(/C=C\c2cc(OC)c(OC)c(OC)c2)cc1OP(=O)(O)O` [Combretastatin A-4 phosphate], the “maximum tolerated daily dose” value in data set [1] is 60-68 mg/m^2.
In the case of `COc1cc(C(=O)c2n[nH]c3c(C#CCO)c(OC)ccc23)cc(OC)c1OC` [Compound 30], the “toxicity at doses greater than 5 mg/kg” value in [2] (daily doses 20 and 50 mg/kg for five days, treatment and combination groups) was “toxic and caused lethality”. Also, the “Treated/Control (T/C) ratio, tumor volume” value in data set [2] (day 11) is 65%; in data set [2] (day 22 (final measurement)), 43%. In data set [2] (day 18, compound 30 5 mg/kg daily, ten per group), the animals found dead result is on record as “One”. Besides, in [2] (day 22 from start of treatment on day 8, compound 30 5 mg/kg daily for five days), the mean weight loss stood at 8%. In [2] (human cancer cell xenograft tumor bearing mice, summary statement), the “tumor volume as % of a control tumor volume” value is on record as 5-70%. Moreover, the MTD at 5 days in data set [3] fell in the range of 5 to 20 mg/kg. Also, the “Metabolic stability (MLM, % remaining at 30 min)” value in data set [4] came out at 101 ± 16%. Further, the “% G2/M” value in data set [5] (H460, 0.4 nM) came out at 31%; in [5] (H460, 1.2 nM) it was 29%; in data set [5] (H460, 3.7 nM) it was 31%; in data set [5] (H460, 11.1 nM), 68%; in [5] (H460, 33.3 nM), 80%. The “% Go/G1” value amounted to 46% in data set [5] (H460, 0.4 nM); 48% in data set [5] (H460, 1.2 nM); 46% in [5] (H460, 3.7 nM); 14% in data set [5] (H460, 11.1 nM); 7% in [5] (H460, 33.3 nM). The “% S” value in data set [5] (H460, 0.4 nM) was found to be 14%; in [5] (H460, 1.2 nM) it was 15%; in data set [5] (H460, 3.7 nM), 14%; in [5] (H460, 11.1 nM), 9%; in data set [5] (H460, 33.3 nM), 7%. The GI50 (commonly the concentration that inhibits growth by half) in data set [6] was found to be 1.9 nM; in data set [8], 0.3 nM; in data set [11], 2.5 nM; in [12] (NCI-H460, 2 h treatment, then 3 days incubation, read-out: GI50 (nM) 2 Hour), 630 nM; in data set [12] (setting [14]), 10 nM; in data set [13], 1.6 nM. Further, the results for the IC50 in data set [7] and in [10] were 1 to 50 nM and 3.9 µM, respectively. Further, the “Plasma stability (% remaining at 30 min)” value in data set [9] was 104%.
As to `C#Cc1c(OC)ccc2c(C(=O)c3cc(OC)c(OC)c(OC)c3)n[nH]c12` [Compound 72], the “Metabolic stability (MLM, % remaining at 30 min)” value in data set [4] is on record as 40 ± 9%. The GI50 was 1.6 nM in data set [6]; 1.9 nM in [8]; 6.3 nM in [11]; 1.3 nM in data set [12] (setting [14]); 3.9 nM in [13]. Besides, in [7], the IC50 was 1 to 50 nM. Also, the “Plasma stability (% remaining at 30 min)” value in data set [9] was found to be 105%.
